Data reported in patent publication US6479670B1, “Selective retinoid acid receptor agonists” (Hoffmann-La Roche Inc., priority 1999, dated 2002).

Tested on: rat model of elastase-induced emphysema
Assay: Repair of alveoli in elastase-induced emphysema (rat model), morphometric analysis
Type: in vivo, male Sprague Dawley rats
Conditions: elastase-induced emphysema in rats
Description: RAR selective agonists were evaluated for its effects on alveolar repair in the rat model of elastase-induced emphysema in rats (Massaro et al. Nature (Medicine, 1997, 3, 675)). Animals were divided into treatment groups of approximately eight. Lung inflammation and alveolar damage was induced in male Sprague Dawley rats by a single instillation of pancreatic elastase(porcine derived, Calbiochem) 2 U/gram body mass. Three weeks post injury all-trans retinoic acid or RAR agonist was dissolved in dimethylsulfoxide (20 mg/ml) and stored at −20 C. Fresh working stocks were prepared fresh daily by dilution in PBS to a final concentration of 2 mg/ml. Animals treated with all-trans retinoic acid (0.5 mg/Kg ip) were dosed once daily by intraperitoneal injection, starting 21 days post injury. Control groups were challenged with elastase and 21 days later treated with Vehicle (DMSO/PBS) for 14 days. Animals were sacrificed 24 hours after the last dose of by exsanguination under deep anesthesia.
The lungs were inflated with 10% neutral buffered formalin by intratracheal instillation at a constant rate (1 ml/gram body mass/min). The lung was excised and immersed in fixative for 24 hours prior to processing. Standard methods were used to prepare 5 um paraffin sections. Sections were stained with Hematoxylin and Eosin (H%E). Computerized Morphometric analysis was performed to determine the average alveolar size and alveolar number (Table 1).

Structure (SMILES): COCC1(C)CCCOc2cc(C#Cc3ccc(C(=O)O)cc3)ccc21 (racemic) [A, 4-(5-methoxymethyl-5-methyl-2,3,4,5-tetrahydro-1-benzo[b]oxepin-8-yl-ethynyl)-benzoic acid]
- % repair area (0.1 mg/kg p.o.): 45.2%
- % repair area (0.3 mg/kg p.o.): 51.3%
- % repair area (0.5 mg/kg i.p.): 58%
